Assay results from patent US6368831B1, “Treatment of hyperproliferative disorders” (Childrens Hospital Los Angeles, priority 1998, dated 2002).

Key:
[1] = tested on: CHLA-90 neuroblastoma cells; experiment: DIMSCAN cytotoxicity assay, CHLA-90; format: cell-based; settings: for cell survival on addition of safingol to the retinoid: retinoid plus safingol 3:1 molar ratio vs retinoid alone; for Combination Index (C.I.) at LD99: PPMP isomer plus HPR at 1:1 micromolar ratio, +96-120 hours
Procedure: (§1) Cytotoxicity is determined using the DIMSCAN assay system (R. Proffitt et al., Cytometry 24, 204-213 (1996); T. Frgala et al., Proc. AACR, 36, 303 (1995). The system employs digital imaging microscopy to quantify viable cells, which selectively accumulate fluorescein diacetate to become brightly fluorescent. The system is capable of measuring cytotoxicity over a 4-5 log dynamic range by quenching the residual fluorescence of dead and dying cells with eosin Y and quantifying the total fluorescence of viable cells using digital thresholding. Measured fluorescence is directly proportionate to the number of viable cells. A comparison of the total fluorescence of a drug-treated cell population to the fluorescence of a similar number of untreated cells yields a survival fraction. In brief, 5000 to 10,000 SK-N-RA neuroblastoma cells/well are replicate plated into 60 wells of a 96-well tissue culture plate in 0.1 cc media and allowed to attach overnight. Drug(s) are then added in 0.05 cc media to the final concentrations indicated. There are 12 wells treated per drug concentration. Twelve wells receive drug-vector only to the appropriate final concentration and serve as controls for the plate. Cells are incubated for 96-120 hours at 37° C. in 5% CO2. Fluorescein diacetate is then added to each well in 0.05 cc media to a final concentration of 8 microgram/cc. Cells are incubated for a further 15 minutes at 37° C. and 0.03 cc of 0.5% eosin Y is added to each well. Total fluorescence of viable cells is then measured by digital imaging microscopy.
(§2) Methods. Cells were added in 100 μL whole medium per well to 96-well microplates for DIMSCAN cytotoxicity assay as previously described. Cell lines used were the neuroblastoma cell lines CHLA-90 and LAN-6. At Time=0, either all-trans-retinoic acid (ATRA), 13-cis-retinoic acid (13-cis-RA) or a combination of retinoid plus safingol at a 3:1 molar ratio were added in 50 μL whole medium. Plates were incubated and assayed for cytotoxicity by DIMSCAN assay at +120 for CHLA-90 cells and+144 hours for LAN-6 cells.
Methods. To determine the manner in which 4-HPR or HPR+safingol induced cell death in neuroblastoma cells, morphological evidence of apoptosis and/or necrosis was assessed in CHLA-90 cells in the presence or absence of a specific as inhibitor of apoptosis, the neural cell-penetrant, pan-caspase enzyme inhibitor, BOC-d-fink (Enzyme Systems Products, Livermore, Calif.). […] CHLA-90 cells were plated in duplicate in whole medium in Lab Tek chamber slides (Nunc, Naperville, Ill.), allowed to attach for 24 hours, and then treated in the presence or absence of BOC-d-fink (40 μM) for one hour prior to treatment with HPR (10 μM). Control cells were treated with vehicle solvents of 0. 1% ethanol (4-HPR) and/or 0.2% DMSO (BOC-d-fink). Morphological features of apoptosis (DNA condensation and/or apoptotic bodies) were visualized in undetached cells at +24 or +48 hours using blue nuclear fluorescence induced by the supravital DNA stain Hoechst 33342 (10 μg/ml for 30 mins at 37° C.), while necrotic cells and advanced apoptotic cells were recognized by red fluorescent staining with propidium iodide (0.5 μM/ml). Red fluorescently-staining cells with condensed nuclear remnants were scored as apoptotic cells. For cells assayed at +48 hours, additional BOC-d-fink (40 μM) or appropriate control vehicle was added at +24 hours. Cells were observed using filters appropriate for each dye sequentially on an Olympus Vanox epifluorescence microscope. Mutiple random fields of cells (of ˜100-500 cells each) were counted and photographed for viable cells, apoptotic cells, and necrotic cells. To further examine cells treated with HPR, cytotoxicity assays were performed on CHLA-90 cells pretreated with or without 40 μM BOC-d-fmk for one hour prior to the addition of 4-HPR (3-10 μM) and assayed at +24 hours by DIMSCAN assay to assess the effect of caspase inhibition on viability. […]

[2] = tested on: LAN-6 neuroblastoma cells; experiment: DIMSCAN cytotoxicity assay, LAN-6; format: cell-based, human; settings: +144 hours; for cell survival on addition of safingol to the retinoid: retinoid plus safingol 3:1 molar ratio vs retinoid alone
Procedure: as §1, with “A comparison of the total fluorescence of a drug-treated cell population to the fluorescence of a similar number of untreated cells yields a survival fraction.” left out
as §2

[3] = tested on: Neuro2a neuroblastoma cells; settings: cited from earlier work
[4] = tested on: CHLA-90 cells; experiment: Flow cytometry sub G0/G1 DNA content, CHLA-90; format: cell-based, human; settings: BOC-d-fmk 40 μM, HPR 10 μM, +24 hours
[5] = tested on: SK-N-RA neuroblastoma cells; experiment: DIMSCAN cytotoxicity assay, SK-N-RA; format: cell-based; settings: for Combination Index (C.I.) at LD99: PPMP isomer plus HPR at 1:1 micromolar ratio, +96-120 hours
Procedure: as §1
As reported above, we have succeeded in increasing the cytotoxicity of 4-HPR through inhibition of several ceramide-related pathways. Most of the inhibitors used have been only studied in vitro. […]
Methods. […] Cytotoxocity is expressed as the fraction of cells surviving (Survival Fraction, S.F.). […] Cytotoxic synergy was analyzed by Combination Index (C.I.) analysis calculated at the dose lethal to 99% of exposed cells (LD99). Statistical analysis of the differences in mean cytotoxicity was evaluated by the unpaired, two-sided Student's t test.

[6] = tested on: MCF7/GCS cells; experiment: DIMSCAN cytotoxicity assay, MCF7/GCS tet OFF vs tet ON; format: cell-based, human; settings: 96 hours, P<0.005 at >6 μM HPR, safingol 0-4 μM
Source text: We have shown that HPR generates ceramide in neuroblastoma tumor cell lines in a dose- and time-depenent manner (B. Maurer et al., J. Natl. Cancer Inst. (1999)(in press)). Glucosylceramide (GC) is a nontoxic metabolite of ceramide. Ceramide is converted into glucosylceramide by the action of glucosylceramide synthase (GCS). Glucosylceramide synthase (GCS) has been transfected into human MCF7 breast cancer cells in a tetracycline-inducible expression construct in the MCF7/GCS cell line (Y. Liu et al., J. Biol. Chem. 274:1140-46 (1999)). […] We have exposed MCF7/GCS cells to HPR, safingol and HPR+safingol in the absence, and in the presence, of doxycycline.
Methods. MCF7/GCS cells were plated and incubated in RPMI medium with 10% fetal bovine serum and 200 microgram/ml Hygromycin B (tet OFF) for DIMSCAN cytotoxicity assays as previously described. To increase GCS expression, MCF7/GCS cells were also incubated in the above medium with 3 microgram/ml doxycycline (tet ON) for three days prior to replating them for DIMSCAN cytotoxicity assay. DIMSCAN assays with doxycycline-induced (tet ON) cells also included 3 microgram/ml doxycycline in the medium. Both “tet OFF” and “tet ON” MCF7/GCS cells were exposed to HPR, safingol and HPR+safingol (3:1 molar ratio) for 96 hours and assayed for survival fraction by DIMSCAN as previously described.

[7] = Phase I; one hour infusion at 120 mg/m^2; cited from earlier work

CC1=C(/C=C/C(C)=C/C=C/C(C)=C\C(=O)O)C(C)(C)CCC1 [13-cis-RA, 13-cis-retinoic acid]
cell survival on addition of safingol to the retinoid ([1]; +120 hours): significant decrease in the cell survival
cell survival on addition of safingol to the retinoid [2]: significant decrease in the cell survival

CC1=C(/C=C/C(C)=C/C=C/C(C)=C/C(=O)O)C(C)(C)CCC1 [ATRA, all-trans-retinoic acid]
cell survival on addition of safingol to the retinoid ([1]; +120 hours): significant decrease in the cell survival
cell survival on addition of safingol to the retinoid [2]: significant decrease in the cell survival
increase in the level of ceramide [3]: 1.5 ×

COC(=O)CC(NC(=O)OC(C)(C)C)C(=O)CF (stereo not drawn) [BOC-d-fmk]
sub G0/G1 DNA-fragmentation induced by HPR [4]: abrogated

CCCCCCCCCCCCCCCC(=O)NC(CN1CCOCC1)C(O)c1ccccc1 [D,L-erythro-PPMP, 1-phenyl-2-palmitoylamino-3-morpholino-1-propanol]
Combination Index (C.I.) at LD99 [5]: < 0.06
Combination Index (C.I.) at LD99 [1]: 0.18

CCCCCCCCCCCCCCCC(=O)NC(CN1CCOCC1)C(O)c1ccccc1 [D,L-threo-PPMP, 1-phenyl-2-palmitoylamino-3-morpholino-1-propanol]
Combination Index (C.I.) at LD99 [5]: < 0.01
Combination Index (C.I.) at LD99 [1]: < 0.09

CCCCCCCCCCCCC/C=C/[C@@H](O)[C@H](CO)N(C)C [N-DMS, d-erythro-N,N-dimethylsphingosine]
cytotoxicity when added to fenretinide and PPMP ([5]; 5 μM fenretinide fixed plus 5 μM PPMP fixed plus N-DMS, 20% O2): increased cytotoxicity

CCCCCCCCCCCCCCC[C@H](O)[C@@H](N)CO [Safingol, (2S,3S)-2-amino-1,3-octadecanediol]
Survival Fraction ([1]; safingol alone at 4 μM, +120 hours): 0.11
Survival Fraction ([2]; safingol alone at 4 μM): 0.39
change of cytotoxicity in tet ON (doxycycline, GCS induced) compared to tet OFF cells [6]: no significant decrease
reported toxicities [7]: no reported toxicities
serum levels during infusion [7]: 3000 nM
